# Measured values from article PMC11403733, “Asymmetric Dirhodium-Catalyzed Modification of Immunomodulatory Imide Drugs and Their Biological Assessment” (ACS Medicinal Chemistry Letters, 2024).
# How the values were obtained:
# CRBN = biological target: T1, CRBN (Homo sapiens, UniProt Q96SW2); assay: Fluorescence Resonance Energy Transfer-Based Cereblon Binding Assay (CRBN HTRF); conditions: 0.5 nM 6×His-CRBN-DDB1, 20 nM tracer CC0782985, TR-FRET
# T1 construct: (CRBN a.a. 1−442, DDB1 a.a); made in house
# T1 sequence (Q96SW2 whole entry): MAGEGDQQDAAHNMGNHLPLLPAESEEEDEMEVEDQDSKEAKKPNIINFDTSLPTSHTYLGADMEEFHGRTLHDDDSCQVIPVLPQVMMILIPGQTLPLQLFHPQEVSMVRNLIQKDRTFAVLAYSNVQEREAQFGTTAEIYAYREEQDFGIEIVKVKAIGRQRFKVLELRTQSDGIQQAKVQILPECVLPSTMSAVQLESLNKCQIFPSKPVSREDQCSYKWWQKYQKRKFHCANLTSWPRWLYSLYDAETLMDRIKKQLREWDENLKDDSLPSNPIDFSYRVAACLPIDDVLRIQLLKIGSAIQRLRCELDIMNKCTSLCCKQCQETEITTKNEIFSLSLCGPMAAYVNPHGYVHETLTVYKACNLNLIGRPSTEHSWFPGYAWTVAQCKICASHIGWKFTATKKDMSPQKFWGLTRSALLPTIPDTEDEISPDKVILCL
# T1 sequence (Q16531 whole entry partner): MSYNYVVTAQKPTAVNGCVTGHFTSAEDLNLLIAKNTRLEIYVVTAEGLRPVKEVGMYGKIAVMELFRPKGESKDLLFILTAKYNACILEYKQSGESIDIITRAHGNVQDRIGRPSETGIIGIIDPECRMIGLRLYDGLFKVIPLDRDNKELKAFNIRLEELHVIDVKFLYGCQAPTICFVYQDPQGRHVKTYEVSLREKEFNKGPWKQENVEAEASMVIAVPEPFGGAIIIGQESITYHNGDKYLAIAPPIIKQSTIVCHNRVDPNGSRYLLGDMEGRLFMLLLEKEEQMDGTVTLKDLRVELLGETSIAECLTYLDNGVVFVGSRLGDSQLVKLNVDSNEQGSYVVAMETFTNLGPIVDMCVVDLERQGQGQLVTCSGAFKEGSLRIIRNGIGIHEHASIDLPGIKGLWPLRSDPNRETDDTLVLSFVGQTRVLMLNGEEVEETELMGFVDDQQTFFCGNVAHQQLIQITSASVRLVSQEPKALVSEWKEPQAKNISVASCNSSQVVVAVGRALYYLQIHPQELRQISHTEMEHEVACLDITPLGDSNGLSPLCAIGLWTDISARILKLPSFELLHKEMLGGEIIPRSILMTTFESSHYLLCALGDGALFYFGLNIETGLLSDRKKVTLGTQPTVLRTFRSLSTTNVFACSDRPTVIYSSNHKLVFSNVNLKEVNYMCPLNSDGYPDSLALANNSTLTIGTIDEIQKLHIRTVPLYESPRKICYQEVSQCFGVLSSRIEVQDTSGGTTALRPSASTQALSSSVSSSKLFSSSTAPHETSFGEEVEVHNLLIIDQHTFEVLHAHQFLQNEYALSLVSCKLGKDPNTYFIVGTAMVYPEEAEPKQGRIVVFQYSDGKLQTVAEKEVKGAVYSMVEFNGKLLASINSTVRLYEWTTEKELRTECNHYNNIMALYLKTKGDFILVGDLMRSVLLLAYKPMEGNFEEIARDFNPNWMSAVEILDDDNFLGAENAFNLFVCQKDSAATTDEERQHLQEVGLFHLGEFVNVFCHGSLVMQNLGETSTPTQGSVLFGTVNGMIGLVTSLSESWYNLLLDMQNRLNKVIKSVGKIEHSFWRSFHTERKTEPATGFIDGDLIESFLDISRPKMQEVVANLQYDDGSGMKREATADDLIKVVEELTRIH
# Protocol: (§1) Section 6: Assay Protocols
# (§2) Fluorescence Resonance Energy Transfer-Based NSD@ PWWP Cereblon Binding Assay. […]
# (§3) Compounds for testing were spotted into a 1536 well plate (Greiner Cat#782075). CRBN and Tracer solution were incubated in compound wells for 20 minutes. Detection mix containing Anti6xHis Tb Crytate (CisBio Cat#61HI2TLF) was then added to assay wells for a final 0.5x assay concentration of detection antibody (stock is provided at 400x). Plates were incubated for 30 minutes before being read on Pherastar FSX plate reader using TR-FRET module (Excitation 340nm, Emssion 615/665nm). ePL and HiBiT degradation assays
# (§4) DF15 cells overexpressing ePL tagged GSPT1 (DF15/GSPT1 ePL OE) was used to monitor the degradation of GSPT1 induced by experimental compounds. MDS-L cells overexpressing ePL tagged CK1α and GSPT1G575N (MDS-L/CK1α ePL OE_ GSPT1G575N OE) was used to monitor the degradation of CK1α induced by experimental compounds. NCCIT cells with HiBiT tag knocked in at the c-terminus of SALL4 (NCCIT/SALL4-HiBiT KI) was used to monitor the degradation of SALL4 induced by experimental compounds. DF15 cells with HiBiT tag knocked in at the n-terminus of IKZF3 (DF15/HiBiT-IKZF3 KI) was used to monitor the degradation of AIOLOS (IKZF3) induced by experimental compounds. […]
# IKZF3 (Aiolos) = biological target: T2, IKZF3 (Aiolos) (Homo sapiens, UniProt Q96SW2+Q9UKT9); assay: HiBiT degradation assay, DF15/HiBiT-IKZF3 KI cells; assay type: cell-based; conditions: N ≥ 3; for EC50: degradation, 4 hr incubation, top conc 10 uM; for IKZF3 Ymin: depth of degradation (100% = no reduction of protein level, 0% = complete degradation), 4 hr
# T2 construct: endogenous in cells; host or cells: DF15 (HiBiT knock-in)
# T2 sequence (Q9UKT9 whole entry): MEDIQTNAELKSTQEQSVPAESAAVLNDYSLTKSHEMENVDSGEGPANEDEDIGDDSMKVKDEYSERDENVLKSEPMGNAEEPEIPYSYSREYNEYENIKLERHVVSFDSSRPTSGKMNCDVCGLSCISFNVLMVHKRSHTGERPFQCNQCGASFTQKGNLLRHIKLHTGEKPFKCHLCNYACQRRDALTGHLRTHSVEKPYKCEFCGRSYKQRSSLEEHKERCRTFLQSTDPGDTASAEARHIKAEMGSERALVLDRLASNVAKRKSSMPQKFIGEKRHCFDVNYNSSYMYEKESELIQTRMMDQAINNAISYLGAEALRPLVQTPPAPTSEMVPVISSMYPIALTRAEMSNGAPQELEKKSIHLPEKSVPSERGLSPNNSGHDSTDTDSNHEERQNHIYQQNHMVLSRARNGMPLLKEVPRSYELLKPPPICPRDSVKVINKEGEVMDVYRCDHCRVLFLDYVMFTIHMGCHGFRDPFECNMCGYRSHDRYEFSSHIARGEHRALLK
# T2 sequence (Q96SW2 whole entry): as the sequence (Q96SW2 whole entry) above
# T2 sequence (Q16531 whole entry partner): as the sequence (Q16531 whole entry partner) above
# Protocol: as §1, §2, §3, §4
# (§5) The cell culture medium recipes, seeding densities and compound incubation time with cells are […]
# (§6) Ta r g e t Cell line Cell culture medium Seeding Compound
# (§7) (HI) FBS, 1mM sodium pyruvate, 25mM Hepes, 0.1% pluronic acid,
# (§8) GSPT1G575N OE ng/mL of human recombinant IL3 […]
# (§9) sodium pyruvate, 25mM Hepes, 0.1% pluronic acid, 1X NEAA
# (§10) For all degradation assays, compounds were pre-spotted in a 153 6 well plate (Corning 3727) starting at 10uM with 3-fold serial dilution down 11 points in replicates using an Echo 650 series acoustic liquid handler. 5uL/well cells were seeded in the assay ready plate at the density and in […]
# (§11) The final DMSO concentration in the cell culture was 0.25%. The plates were equilibrated at room temperature for 30 minutes before putting into a 37 °C CO2 incubator. After appropriate incubation period, plates were retrieved from the incubator and set at room temperature to equilibrate for 30 minutes, before adding ePL or HiBiT detection reagent. For ePL detection, the pre-prepared mixture of EA reagent, lysis buffer, and substrate reagent at ratio 1:1:4 from the DiscoverX InCELL Detection Kit (Eurofins 96-0079L) according to the manufacturer ’s recommendation was added 3ul/well into the plate. Plates were incubated in the dark for 1hr at room temperature before reading using a BMG PheraStar luminescence reader. For HiBiT detection, Nano-Glo HiBiT Lytic Reagent (Promega, N3050) prepared according to the manufacturer ’s recommendation was added 3 uL/well into the plate. Plates were incubated 30 minutes at room temperature in the dark before reading using a BMG PheraStar […]
# (§12) To determine EC50 values for degradation, a four parameter logistic model (Sigmoidal Dose-Response Model) (FIT= (A+((B-A)/1+((C/x)^D)))) C is the inflection point (EC50), D is […] , A and B are the low and high limits of the fit respectively) was used to determine the compound’s EC50 value, which is the half maximum effective concentration. In the degradation assays, the Yconst of each compound was calculated by normalizing the lowest point of the fitted curve to the media only control, which is 0%, and the cells treated with DMSO control, which is 100%. All degradation curves were processed and evaluated using Dotmatics.
# (§13) Section 7: Biological Data Tables
# CK1α = biological target: T3, CK1α (Homo sapiens, UniProt P48729+Q96SW2); assay: ePL degradation assay, MDS-L/CK1α ePL OE_GSPT1G575N OE cells; assay type: cell-based; conditions: for EC50: degradation, 4 hr incubation, top conc 10 uM, N ≥ 3, read-out: CK1a EC50; for CK1a Ymin: depth of degradation (100% = no reduction, 0% = complete degradation), 4 hr, N ≥ 3
# T3 construct: expressed in transfected cells; host or cells: MDS-L
# T3 sequence (P48729 whole entry): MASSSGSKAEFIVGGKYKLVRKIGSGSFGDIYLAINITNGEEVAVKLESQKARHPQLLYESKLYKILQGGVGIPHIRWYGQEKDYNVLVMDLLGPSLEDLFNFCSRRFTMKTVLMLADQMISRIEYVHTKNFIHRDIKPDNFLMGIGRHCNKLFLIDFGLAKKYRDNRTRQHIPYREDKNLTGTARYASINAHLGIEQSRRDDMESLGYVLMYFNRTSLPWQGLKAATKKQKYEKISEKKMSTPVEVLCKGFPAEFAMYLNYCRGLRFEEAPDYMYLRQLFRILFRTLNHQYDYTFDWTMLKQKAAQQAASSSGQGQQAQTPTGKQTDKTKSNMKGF
# T3 sequence (Q96SW2 whole entry): as the sequence (Q96SW2 whole entry) above
# T3 sequence (Q16531 whole entry partner): as the sequence (Q16531 whole entry partner) above
# Protocol: as §1, §2, §3, §4, §5, §6, §7, §8, §9, §10, §11, §12, §13
# GSPT1 = biological target: T4, GSPT1 (Homo sapiens, UniProt P15170+Q96SW2); assay: ePL degradation assay, DF15/GSPT1 ePL OE cells; assay type: cell-based; conditions: N ≥ 3; for EC50: degradation, 20 hr incubation, top conc 10 uM; for GSPT1 Ymin: depth of degradation (100% = no reduction, 0% = complete degradation), 20 hr
# T4 construct: expressed in transfected cells; host or cells: DF15
# T4 sequence (P15170 1-637 isoform P15170-3): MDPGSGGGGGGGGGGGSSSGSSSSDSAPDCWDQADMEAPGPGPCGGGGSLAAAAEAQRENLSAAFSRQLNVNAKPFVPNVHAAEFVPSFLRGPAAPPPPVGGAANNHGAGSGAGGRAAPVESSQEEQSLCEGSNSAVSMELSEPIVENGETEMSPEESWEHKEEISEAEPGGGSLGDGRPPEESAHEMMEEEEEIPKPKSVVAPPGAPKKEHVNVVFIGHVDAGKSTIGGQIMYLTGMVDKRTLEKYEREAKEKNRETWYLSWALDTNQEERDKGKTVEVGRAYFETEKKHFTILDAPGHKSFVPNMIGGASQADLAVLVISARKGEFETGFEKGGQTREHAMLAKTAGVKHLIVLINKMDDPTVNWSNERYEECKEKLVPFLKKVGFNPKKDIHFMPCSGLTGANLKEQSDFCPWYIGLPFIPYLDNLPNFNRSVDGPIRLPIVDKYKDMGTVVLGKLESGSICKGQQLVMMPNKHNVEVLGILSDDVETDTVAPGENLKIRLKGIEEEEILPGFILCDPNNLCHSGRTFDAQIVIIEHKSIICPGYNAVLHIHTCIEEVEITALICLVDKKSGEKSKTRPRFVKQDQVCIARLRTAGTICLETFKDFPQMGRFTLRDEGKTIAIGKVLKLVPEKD
# T4 sequence (Q96SW2 whole entry): as the sequence (Q96SW2 whole entry) above
# T4 sequence (Q16531 whole entry partner): as the sequence (Q16531 whole entry partner) above
# Protocol: as §1, §2, §3, §4, §5, §6, §7, §8, §9, §10, §11, §12, §13
# SALL4 = biological target: T5, SALL4 (Homo sapiens, UniProt Q96SW2+Q9UJQ4); assay: HiBiT degradation assay, NCCIT/SALL4-HiBiT KI cells; assay type: cell-based; conditions: N ≥ 3; for EC50: degradation, 2 hr incubation, top conc 10 uM; for SALL4 Ymin: depth of degradation (100% = no reduction, 0% = complete degradation), 2 hr
# T5 construct: endogenous in cells; host or cells: NCCIT (HiBiT knock-in)
# T5 sequence (Q9UJQ4 whole entry): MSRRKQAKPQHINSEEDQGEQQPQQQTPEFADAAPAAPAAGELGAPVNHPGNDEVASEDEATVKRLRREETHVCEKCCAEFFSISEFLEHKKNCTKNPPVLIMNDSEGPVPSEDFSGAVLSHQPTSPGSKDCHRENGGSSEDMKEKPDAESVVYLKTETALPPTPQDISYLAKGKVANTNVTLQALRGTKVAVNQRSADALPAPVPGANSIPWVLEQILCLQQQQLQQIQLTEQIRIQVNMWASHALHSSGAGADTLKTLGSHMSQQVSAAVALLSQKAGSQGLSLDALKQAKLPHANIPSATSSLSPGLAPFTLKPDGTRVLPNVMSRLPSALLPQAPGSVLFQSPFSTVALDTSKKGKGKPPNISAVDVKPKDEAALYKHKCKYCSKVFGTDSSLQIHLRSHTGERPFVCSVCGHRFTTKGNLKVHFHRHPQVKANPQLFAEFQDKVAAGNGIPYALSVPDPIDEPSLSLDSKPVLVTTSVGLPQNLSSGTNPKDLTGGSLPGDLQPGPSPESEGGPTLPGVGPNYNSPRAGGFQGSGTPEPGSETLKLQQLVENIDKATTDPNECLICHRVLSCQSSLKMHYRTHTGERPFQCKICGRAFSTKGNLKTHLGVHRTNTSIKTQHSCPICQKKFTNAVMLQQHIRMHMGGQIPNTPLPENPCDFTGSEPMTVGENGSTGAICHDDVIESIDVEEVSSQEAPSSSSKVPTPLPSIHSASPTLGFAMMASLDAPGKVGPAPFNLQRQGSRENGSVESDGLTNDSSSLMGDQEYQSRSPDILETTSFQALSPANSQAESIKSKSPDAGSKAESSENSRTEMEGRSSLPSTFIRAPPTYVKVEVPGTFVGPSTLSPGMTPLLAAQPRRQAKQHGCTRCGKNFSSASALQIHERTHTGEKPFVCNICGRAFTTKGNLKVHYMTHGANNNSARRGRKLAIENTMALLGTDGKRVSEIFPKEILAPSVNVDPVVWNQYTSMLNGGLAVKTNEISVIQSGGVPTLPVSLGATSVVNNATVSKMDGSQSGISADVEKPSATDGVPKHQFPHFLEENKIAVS
# T5 sequence (Q96SW2 whole entry): as the sequence (Q96SW2 whole entry) above
# T5 sequence (Q16531 whole entry partner): as the sequence (Q16531 whole entry partner) above
# Protocol: as §1, §2, §3, §4, §5, §6, §7, §8, §9, §10, §11, §12, §13
Compound,IC50 (CRBN) [µM],EC50 (IKZF3 (Aiolos)) [µM],IKZF3 Ymin (IKZF3 (Aiolos)) [%],EC50 (CK1α) [µM],CK1a Ymin (CK1α) [%],EC50 (GSPT1) [µM],GSPT1 Ymin (GSPT1) [%],EC50 (SALL4) [µM],SALL4 Ymin (SALL4) [%]
O=C1CCC(N2Cc3cc(C4=C[C@]4(C(=O)OCC(Cl)(Cl)Cl)c4ccc(Br)cc4)ccc3C2=O)C(=O)N1 (some centres unmarked) [Compound 21a],0.59,> 10,95 ± 7.6,> 10,89 ± 9.3,> 10,81 ± 17,> 10,89 ± 4.2
O=C1CCC(N2Cc3cc(C4=C[C@@]4(C(=O)OCC(Cl)(Cl)Cl)c4ccc(Br)cc4)ccc3C2=O)C(=O)N1 (some centres unmarked) [Compound 21b],0.8,4.8 ± 2.6,79 ± 6.4,0.25 ± 0.37,57 ± 8.0,3.3 ± 3,7.7 ± 4.7,0.075 ± 0.05,68 ± 2.1
O=C1CCC(N2C(=O)c3ccc(C4=C[C@]4(C(=O)OCC(Cl)(Cl)Cl)c4ccc(Br)cc4)cc3C2=O)C(=O)N1 (some centres unmarked) [Compound 22a],5.7,1.3 ± 2.1,73 ± 6.2,1.2 ± 1.2,60 ± 26,1.1 ± 0.69,–,3.6 ± 0.74,67 ± 7.8
O=C1CCC(N2Cc3ccc(C4=C[C@]4(C(=O)OCC(Cl)(Cl)Cl)c4ccc(Br)cc4)cc3C2=O)C(=O)N1 (some centres unmarked) [Compound 23a],0.98,> 10,94 ± 2.3,> 10,93 ± 10,> 10,82 ± 7.1,> 10,95 ± 6.5
O=C1CCC(N2Cc3ccc(C4=C[C@@]4(C(=O)OCC(Cl)(Cl)Cl)c4ccc(Br)cc4)cc3C2=O)C(=O)N1 (some centres unmarked) [Compound 23b],1.7,> 10,81 ± 4.6,> 10,95 ± 6.0,> 10,88 ± 10,> 10,91 ± 10
O=C1CCC(N2Cc3cccc(C4=C[C@]4(C(=O)OCC(Cl)(Cl)Cl)c4ccc(Br)cc4)c3C2=O)C(=O)N1 (some centres unmarked) [Compound 24a],2.4,> 10,97 ± 0.58,> 10,96 ± 12,> 10,85 ± 24,> 10,95 ± 5.0
O=C1CCC(N2Cc3cccc(C4=C[C@@]4(C(=O)OCC(Cl)(Cl)Cl)c4ccc(Br)cc4)c3C2=O)C(=O)N1 (some centres unmarked) [Compound 24b],2.9,> 10,93 ± 2.5,> 10,93 ± 6.8,> 10,80 ± 4.3,> 10,97 ± 5.2
